# According to article PMC2751816, “Functional, Non-Clonal IgM^a-Restricted B Cell Receptor Interactions with the HIV-1 Envelope gp41 Membrane Proximal External Region” (PLoS ONE, 2009):
# “Also recorded” adds a separate entry of the source.
# Legend:
# [1] = system: splenic B cells, C57BL/6 congenic (IgH^a); assay: Flow cytometry: tetramer staining of splenic B cells from C57BL/6 congenic (IgH^a) mice; assay type: cell-based, mouse (B6Igh^a); details: C57BL/6 mice homozygous for Igh^a; Fig. 5
# Method: (§1) N-biotinylated, linker/spacer-containing peptides used to make tetramers are detailed in Table S4 and Fig. 7A. Peptides were synthesized and purified using reverse-phase HPLC (Primm Biotechnology). To produce tetramerized forms of each peptides, 200 µM peptide and 6 µM APC-labeled streptavadin (SA) were combined at equal volumes, and mixtures were incubated at 4°C for 4 h. Unbound peptide was removed from peptide-APC complexes by centrifugal filtration using an Amicon Centriprep YM30 column (Millipore Corporation). Purified tetramer preparations were determined using the Micro BSA protein assay kit (Pierce Biotechnology).
# (§2) Female C57BL/6, BALB/c, B6Igh^a, and CB17 (BALBc Igh^b) inbred mouse strains (8–12 wks of age) were purchased from Charles River Laboratories. All mice were housed in the Duke University Animal Facility in a pathogen-free environment with 12 h light/dark cycles at 20–25°C under AALAC guidelines and in accordance with all Institutional Animal Care and Use Committee and Duke University Institutional Biosafety Committee-approved animal protocols. […]
# (§3) FACS staining of single cell suspensions (≥2×10^6) was conducted using pre-mixed combinations of fluorochrome-labeled Abs and APC-conjugated B cell tetramers at empirically-determined optimal concentrations. […]
# MZ and B1 B cells = details: gp41 MPER-immunized BALB/c mice; ref L. Verkoczy and B. Haynes, unpublished results; cited from earlier work
# Text: Classical B-cell sAgs, like the S. aureus protein A subunit (SpA), can bind to and activate large populations of B cells, may cause selective deletion of MZ and B1 B cell subsets, and bind to B cells based on VH family usage, [52]. Similarly, sAg interactions of HIV-1 gp120 with human B cells have been described (reviewed in [37] and [53]–[56]), resulting in a VH3-skewed repertoire in HIV-1 infected individuals (reviewed in [57] and [58]–[60]). […] In this context, one obvious question arising from our studies is what are the physiological consequences of weak and/or incomplete signaling by gp41 MPER (Fig. 8). One possibility is that incomplete activation of B cells by low affinity MPER binding could suppress the T-independent component of MPER Ab respon ...
# [2] = system: protein tyrosine phosphorylation in BALB/c splenic B cells; assay: Phosphotyrosine immunoblot of stimulated splenic B cells; assay type: cell-based, mouse (BALB/c); details: saturating tetramer 20 µg/10^6 cells, Fig. 8A
# Method: To determine if gp41 MPER interactions with IgM^a could elicit the activating signals required for biological responses, we assessed BCR-proximal signaling events in BALB/c splenic B cells ligated with gp41 MPER tetramers. First, we determined the induction of protein tyrosine phosphorylation in cells incubated with saturating concentrations (20 µg/10^6 cells; see Fig. 1b) of gp41 MPER tetramer (Fig. 8A).
# 5×10^6 splenic BALB/c B cells were isolated by negative depletion of CD43-expressing cells with anti-mouse CD43 MACS beads (Miltenyi Biotech) to >95% purity, as assessed by flow cytometry. Purified B cells were equilibrated to 37°C in a humidified incubator and stimulated with gp41 MPER tetramers or F(ab)'2 anti-IgM (Jackson ImmunoResearch) in 5% FBS-containing DMEM media for various times. Whole cell extracts were made by lysing cell pellets in 1% NP-40 lysis buffer supplemented with PhosSTOP and complete, mini EDTA-free protease inhibitor tablets (Roche) and insoluble cellular debris was removed by centrifugation. Extracts were fractionated by reducing SDS PAGE on Novex Bis-Tris Mini gels (Invitrogen) and transferred to Invitrolon PVDF membranes (Invitrogen) using the Xcell II blot module. Primary Abs used were anti-phosphotyrosine clone 4G10 (Upstate) and anti-GAPDH (Millipore). Secondary Abs used were goat-anti-mouse IgG1 or IgG2a, both coupled to HRP (Jackson ImmunoResearch). […]
# [3] = system: splenic B cells, BALB/c congenic (CB17) (IgH^b); assay: Flow cytometry: tetramer staining of splenic B cells from BALB/c congenic CB17 (IgH^b) mice; assay type: cell-based, mouse (CB17); details: BALB/c mice homozygous for Igh^b; Fig. 5
# Method: as §1, §2, §3
sequence,measurement,setting,value
"QQEKNEQELLELDKWASLWN [gp41 MPER tetramer, (residues 659–678 of the HIV-1 envelope)]",gp41 MPER binding in congenic mice (in words),[1],exhibited gp41 MPER binding identical to BALB/c animals
same,B cell subset deletion after immunization (in words),MZ and B1 B cells,partial deletion of MZ and B1 B cells in gp41 MPER-immunized BALB/c mice; also recorded: reduced MZ B cell populations in gp41 MPER-immunized BALB/c mice
same,protein tyrosine phosphorylation relative to anti-IgM ligation,[2]; lower than anti-IgM ligation of equal numbers of B cells,2- to 3 fold
same,protein tyrosine phosphorylation (in words),[2]; listed as gp41 MPER tetramers,"induced rapid and reproducible patterns of protein phosphorylation; also recorded: only selected proteins were phosphorylated, including Syk, PI3K p110δ, PLC-γ2, and one or more of the Src kinase family members Lyn, Fyn, or Blk"
same,gp41 MPER binding in congenic mice (in words),[3],lost gp41 MPER binding
